Measured values: the supplement of paper PMC10307832

The cell lines below were run with CC1=C(N=C(N=C1N)[C@H](CC(=O)N)NC[C@@H](C(=O)N)N)C(=O)N[C@@H]([C@H](C2=CN=CN2)OC3C(C(C(C(O3)CO)O)O)OC4C(C(C(C(O4)CO)O)OC(=O)N)O)C(=O)N[C@H](C)[C@H]([C@H](C)C(=O)N[C@@H]([C@@H](C)O)C(=O)NCCC5=NC(=CS5)C6=NC(=CS6)C(=O)NCCC[S+](C)C)O [Bleomycin] + CC(C)C[C@H](NC(=O)[C@H](Cc1ccccc1)NC(=O)c1cnccn1)B(O)O [Bortezomib] (partner 0.002 µM) (assay: relative viability (nuclei count vs DMSO), 5 days (fraction); higher = more cells survive). Conditions: first compound 0.01 µM; main component drawn.
Outline: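 Relative viability equals treated-well nuclei counts divided by vehicle-well nuclei counts. Counts came from 4× images of lung cancer cell lines grown in 1536-well plates for 5 days after pin-tool dosing on the day after seeding. Dosing used one drug alone or a fixed anchor-drug dose plus five library-drug doses (not always all listed) in √10 steps, and values are medians of duplicate plates.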
COR-L23 gave a relative viability of 0.669. COR-L 105 showed a relative viability of 0.711. With LOU-NH91 the relative viability was 0.493. NCI-H3122 gave a relative viability of 0.999. With HOP-62 the relative viability was 0.359. HCC-44 showed a relative viability of 0.544. LU99A showed a relative viability of 0.763. Cell Line BEN has a relative viability of 0.909. For HARA, the relative viability was 1. For HCC-78, the relative viability was 0.426. For LCLC-97TM1, the relative viability was 0.173. For NCI-H2009, the relative viability was 0.852. For A-427, the relative viability was 0.857. With NCI-H460 the relative viability was 0.331. With NCI-H727 the relative viability was 0.796. In the case of NCI-H1734, the relative viability is reported as 0.732. NCI-H520 gave a relative viability of 0.596. In the case of NCI-H2405, the relative viability is reported as 0.875. Cell Line SW 1573 has a relative viability of 0.7. With 201T the relative viability was 1.12. With NCI-H1915 the relative viability was 0.645. Work on HCC-827 yielded a relative viability of 0.948. Cell Line LXF-289 has a relative viability of 0.861. For NCI-H2347, the relative viability was 0.915. For NCI-H650, the relative viability was 0.548. NCI-H1651 was tested, and the relative viability was 0.91. EPLC-272H was tested, and the relative viability was 0.863.

Same assay, conditions: first compound 0.03162 µM; main component drawn
With COR-L23 the relative viability was 0.774. COR-L 105 gave a relative viability of 0.594. With LOU-NH91 the relative viability was 0.439. ChaGo-K-1 gave a relative viability of 1.01. NCI-H3122 gave a relative viability of 0.976. Work on HOP-62 yielded a relative viability of 0.189. HCC-44 gave a relative viability of 0.333. For LU99A, the relative viability was 0.83. For BEN, the relative viability was 0.868. For HARA, the relative viability was 1.09. HCC-78 showed a relative viability of 0.372. NCI-H441 showed a relative viability of 0.886. For LCLC-97TM1, the relative viability was 0.17. Work on NCI-H2009 yielded a relative viability of 0.98. A-427 gave a relative viability of 0.817. NCI-H460 showed a relative viability of 0.286. Work on NCI-H727 yielded a relative viability of 0.853. NCI-H1734 gave a relative viability of 0.664. NCI-H520 gave a relative viability of 0.33. Cell Line NCI-H2405 has a relative viability of 0.932. In the case of SW 1573, the relative viability is reported as 0.812. Cell Line 201T has a relative viability of 1. NCI-H1915 was tested, and the relative viability was 0.823. Cell Line HCC-827 has a relative viability of 0.918. With LXF-289 the relative viability was 0.944. Cell Line NCI-H2347 has a relative viability of 1.05. NCI-H650 was tested, and the relative viability was 0.697. With NCI-H1651 the relative viability was 0.898. EPLC-272H showed a relative viability of 0.883.

Same assay, conditions: first compound 0.1 µM; main component drawn
COR-L23 showed a relative viability of 0.355. COR-L 105 gave a relative viability of 0.549. LOU-NH91 showed a relative viability of 0.355. ChaGo-K-1 was tested, and the relative viability was 0.768. NCI-H3122 was tested, and the relative viability was 0.957. Cell Line HOP-62 has a relative viability of 0.0755. In the case of HCC-44, the relative viability is reported as 0.225. LU99A was tested, and the relative viability was 0.602. BEN showed a relative viability of 0.967. For HARA, the relative viability was 1.04. HCC-78 showed a relative viability of 0.458. With NCI-H441 the relative viability was 0.458. With LCLC-97TM1 the relative viability was 0.0959. NCI-H2009 was tested, and the relative viability was 1.01. In the case of A-427, the relative viability is reported as 0.725. Work on NCI-H460 yielded a relative viability of 0.103. In the case of NCI-H727, the relative viability is reported as 0.775. NCI-H1734 was tested, and the relative viability was 0.725. NCI-H520 was tested, and the relative viability was 0.708. Work on NCI-H2405 yielded a relative viability of 0.91. SW 1573 gave a relative viability of 0.719. 201T gave a relative viability of 1.01. For NCI-H1915, the relative viability was 0.384. Cell Line HCC-827 has a relative viability of 0.9. LXF-289 gave a relative viability of 0.775. For NCI-H2347, the relative viability was 0.889. NCI-H650 showed a relative viability of 0.569. NCI-H1651 gave a relative viability of 0.664. Cell Line EPLC-272H has a relative viability of 0.718.

Same assay, conditions: first compound 0.3162 µM; main component drawn
COR-L23 gave a relative viability of 0.136. COR-L 105 showed a relative viability of 0.337. LOU-NH91 gave a relative viability of 0.335. ChaGo-K-1 was tested, and the relative viability was 0.393. NCI-H3122 gave a relative viability of 0.698. In the case of HOP-62, the relative viability is reported as 0.113. HCC-44 gave a relative viability of 0.153. LU99A showed a relative viability of 0.167. BEN showed a relative viability of 0.578. For HARA, the relative viability was 0.514. With HCC-78 the relative viability was 0.29. NCI-H441 was tested, and the relative viability was 0.226. LCLC-97TM1 was tested, and the relative viability was 0.077. Cell Line NCI-H2009 has a relative viability of 0.358. With A-427 the relative viability was 0.167. NCI-H460 was tested, and the relative viability was 0.0317. For NCI-H727, the relative viability was 0.303. With NCI-H1734 the relative viability was 0.239. For NCI-H520, the relative viability was 0.142. With NCI-H2405 the relative viability was 0.525. With SW 1573 the relative viability was 0.305. 201T showed a relative viability of 0.921. Work on NCI-H1915 yielded a relative viability of 0.179. For HCC-827, the relative viability was 0.464. LXF-289 showed a relative viability of 0.27. Work on NCI-H2347 yielded a relative viability of 0.7. With NCI-H650 the relative viability was 0.259. NCI-H1651 showed a relative viability of 0.457. For EPLC-272H, the relative viability was 0.174.

Same assay, conditions: first compound 1 µM; main component drawn
Work on COR-L23 yielded a relative viability of 0.102. In the case of COR-L 105, the relative viability is reported as 0.292. LOU-NH91 gave a relative viability of 0.348. Cell Line ChaGo-K-1 has a relative viability of 0.306. Work on NCI-H3122 yielded a relative viability of 0.428. Cell Line HOP-62 has a relative viability of 0.072. HCC-44 was tested, and the relative viability was 0.145. LU99A gave a relative viability of 0.128. BEN gave a relative viability of 0.609. In the case of HARA, the relative viability is reported as 0.239. HCC-78 was tested, and the relative viability was 0.31. NCI-H441 gave a relative viability of 0.211. LCLC-97TM1 was tested, and the relative viability was 0.0823. Work on NCI-H2009 yielded a relative viability of 0.441. With A-427 the relative viability was 0.213. With NCI-H460 the relative viability was 0.0212. NCI-H727 was tested, and the relative viability was 0.37. With NCI-H1734 the relative viability was 0.226. NCI-H520 showed a relative viability of 0.293. Cell Line NCI-H2405 has a relative viability of 0.371. SW 1573 showed a relative viability of 0.26. 201T was tested, and the relative viability was 0.827. NCI-H1915 showed a relative viability of 0.136. With HCC-827 the relative viability was 0.357. Work on LXF-289 yielded a relative viability of 0.135. NCI-H2347 was tested, and the relative viability was 0.476. NCI-H650 gave a relative viability of 0.214. Cell Line NCI-H1651 has a relative viability of 0.306. With EPLC-272H the relative viability was 0.158.
